Degradation observed and IC50 data for 3 compounds are collected here from US10806737B2, “Compounds and methods for the targeted degradation of fetal liver kinase polypeptides” (Arvinas Operations, Inc., priority 2016, dated 2020).

A word on the IC50: it is the concentration at which inhibition is half-maximal.

For one experiment, the target named is T1, FLT-3 (Homo sapiens, UniProt P36888, INS600HVDFREYEYD).
T1 construct: probed with antibodies specific for FLT-3 and GAPDH; endogenous in cells; host or cells: MV-4-11 cells
T1 sequence (P36888 with tags, fused parts or gaps INS600HVDFREYEYD): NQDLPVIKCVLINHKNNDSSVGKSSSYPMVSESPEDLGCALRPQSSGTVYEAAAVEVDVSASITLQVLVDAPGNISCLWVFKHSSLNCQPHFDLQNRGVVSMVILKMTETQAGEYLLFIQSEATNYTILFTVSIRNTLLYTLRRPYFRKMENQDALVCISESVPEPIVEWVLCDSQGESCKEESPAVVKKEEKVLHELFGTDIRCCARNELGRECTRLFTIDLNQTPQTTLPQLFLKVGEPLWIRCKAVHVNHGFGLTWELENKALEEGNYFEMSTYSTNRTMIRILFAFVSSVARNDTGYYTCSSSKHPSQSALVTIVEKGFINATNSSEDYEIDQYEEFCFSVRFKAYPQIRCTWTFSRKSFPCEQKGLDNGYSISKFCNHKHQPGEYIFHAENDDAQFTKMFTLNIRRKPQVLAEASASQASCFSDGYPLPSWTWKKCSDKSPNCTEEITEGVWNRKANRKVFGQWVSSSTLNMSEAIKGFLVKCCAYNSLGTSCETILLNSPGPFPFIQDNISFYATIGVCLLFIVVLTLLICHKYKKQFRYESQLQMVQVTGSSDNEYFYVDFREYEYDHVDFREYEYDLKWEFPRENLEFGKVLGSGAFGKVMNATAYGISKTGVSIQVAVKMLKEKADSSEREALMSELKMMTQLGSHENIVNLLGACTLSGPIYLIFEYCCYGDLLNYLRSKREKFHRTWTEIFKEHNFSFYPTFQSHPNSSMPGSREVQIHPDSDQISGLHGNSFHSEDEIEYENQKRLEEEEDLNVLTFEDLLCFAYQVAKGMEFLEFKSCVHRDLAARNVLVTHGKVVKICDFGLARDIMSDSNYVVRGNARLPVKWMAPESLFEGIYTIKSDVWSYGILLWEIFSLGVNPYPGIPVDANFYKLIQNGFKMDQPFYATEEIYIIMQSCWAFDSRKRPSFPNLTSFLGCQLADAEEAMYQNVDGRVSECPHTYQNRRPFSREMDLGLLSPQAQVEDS
The experiment is described as follows: Cellular assay of target protein degradation (MV-4-11 cells, westernblot). The class given is cell-based. Conditions: Table 3; FLT-3 degradation, result in words. How it is done:
Protocol for the Cellular Assay of Target Protein Degradation (MV-4-11 Cells, Westernblot).
MV-4-11 cells (approximately 1 million cells per well) were treated with the indicated concentrations ([…]) of compound for 24 hours. The cells were spun down and washed twice with PBS. The cells were suspended by lysis buffer (50 mM Tris (pH7.4), 150 mM NaCl, 1 mM EDTA, 0.5% NP-40, phosphatase and protease inhibitors) and incubated for an additional 30 min at 4° C. for complete lysis. After another centrifugation (13000 rpm for 15 minutes), the supernatants were kept as cell lysates. The protein concentration of the cell lysates was determined via the bicinchoninic acid (BCA) method. Equal amounts (10-20 μg) of protein samples were subjected to 8-15% SDS-PAGE. The proteins were transferred to nitrocellulose membrane and probed with antibodies specific for FLT-3 and GAPDH.

The test system of the next experiment is MV4-11 cells. The experiment is described as follows: Cell proliferation assay (CellTiter 96 AQueous One Solution). In kind it is cell-based. The note with it: Homo sapiens. How it is done:
Protocol for the Cell Proliferation Assays (MV-4-11 Cells).
MV-4-11 or Molm 14 cells were seeded in 96-well plates at a density of 1×10^4 cells/well and treated with various concentrations of the test compounds for 72 hours. The highest concentration was 500 nM and was serially diluted 5-fold seven times. After incubation, 20 μl/well of CellTiter 96® AQueous One Solution Reagent (Promega®) was added and the plate was incubated an additional 3 hours. The absorbance was measured at 490 nm, and cell viability was calculated by comparing to the absorbance of the vehicle-treated control group using GraphPad Prism 7.
Cell viability/survival is illustrated in FIGS. 4A, 4B and 4C, as determined by a cell proliferation assay. […] DC50, IC50, MH+, and NMR data for exemplary PROTAC-34 through PROTAC-38 and PROTAC-34-Epimer (structure shown below) is shown in Table 3 below.

Read-outs that look alike come from different tables or passages of the source.

Regarding `Cc1ncsc1-c1ccc(CNC(=O)[C@@H]2C[C@@H](O)CN2C(=O)[C@@H](NC(=O)CCOCCOCCOc2ccc3c(c2)sc2nc(-c4ccc(NC(=O)Nc5cc(C(C)(C)C)on5)cc4)cn23)C(C)(C)C)cc1` [PROTAC-34-Epimer], at FLT-3, the Degradation observed entry is recorded as “No degradation”. In addition, the IC50 in the experiment with MV4-11 cells (MV4-11, Table 3, MV4-11, read-out: IC50 [cell line]) was determined as 2.27 nM.

On to `CC(C)(C)c1cc(NC(=O)Nc2ccc(-c3cn4c(n3)sc3cc(OCCN5CCOCC5)ccc34)cc2)no1` [Quizartinib], for which the IC50 in the experiment with MV4-11 cells (MV4-11, 72 h, Table 1, MV4-11 cells, 72 hours, cell viability, read-out: IC50 (nM) MV4-11) was 2.34 nM; in the experiment on MV4-11 cells (MV4-11, 72 h, Table 2, MV4-11 cells, 72 hours, cell viability, read-out: IC50 (nM) MV4-11) it was 1.75 nM.

As for `Cc1ncsc1-c1ccc(CNC(=O)[C@@H]2C[C@@H](O)CN2C(=O)[C@@H](NC(=O)CCOCCCCOc2ccc3c(c2)sc2nc(-c4ccc(NC(=O)Nc5cc(C(C)(C)C)on5)cc4)cn23)C(C)(C)C)cc1` [PROTAC-37], at FLT-3, the Degradation observed result is listed as “No degradation”.
